Test results published in US20060183794A1, “Drug composition containing nf-kb inhibitor” (priority 2002, published 2006).

What was measured:
p65 subunit of NF-κB = molecular target: T1, p65 subunit of NF-κB (Homo sapiens, UniProt Q04206); assay: Confocal microscopy of p65 distribution in ATL cell lines; type: cell-based; details: MT-1 and TL-Om1; 10 μg/ml DHM2EQ, 24 hours
T1 construct: endogenous in cells; host or cells: ATL cell lines MT-1 and TL-Om1
Experimental: It is thought that DHM2EQ inhibits nuclear translocation of the p65 subunit of NF-κB. The ATL cell lines (MT-1 and TL-Om1) were treated with 10 μg/ml DHM2EQ for 24 hours and distribution of p65 was examined with a confocal microscope, using fluorescence-labeled anti-p65 antibody. The cell lines not treated with DHM2EQ were also examined in the same manner. In the figure, “−” and “+” indicate the results of DHM2EQ untreatment and DHM2EQ treatment, respectively.

[1] = test system: K562 (myelocytic leukemia cell line); assay: MTT assay, proliferation of control cell line K562; type: cell-based
Experimental: Cells from the ATL cell lines (MT-1 and TL-Om1) and a control cell line (K562) were plated in 96-well plates at 1×10^5 cells/well and DHM2EQ was added at the desired final concentrations (2, 5, and 10 μg/ml). Cells to which the solvent DMSO had been added in equal volume (0 μg/ml) were used as […] incubation for 72 hours, cell viability was judged by the MTT assay. Relative MTT values were obtained as the ratio of the MMT values of DHM2EQ-treated cells to those of DHM2EQ-untreated cells, i.e., (MTT values of DHM2EQ-treated cells/MTT values of DHM2EQ-untreated cells)×100(%).
DHM2EQ was added to the ATL cell lines (MT-1 and TL-Om1) and a control cell line (K562) at a final concentration of 10 μg/ml and the cells were incubated for 12, 24, 48, and 72 hours. The proliferation-inhibitory effect was examined by the MTT assay. Cells to which the solvent DMSO had been added in equal volume were used as controls. Relative MTT values were obtained in the same manner as the aforementioned (1).
Time-course analysis and concentration dependence analysis of the inhibitory effect of DHM2EQ on proliferation of Hodgkin's lymphoma cells were performed in the same manner as in Example 2. As Hodgkin's lymphoma cells, the Hodgkin's lymphoma cell lines KMH-2 and L-540 were used.

NF-κB [2] = molecular target: T2, NF-κB (Homo sapiens, UniProt P19838+Q04206); assay: Gel shift assay of constitutive NF-κB activation in Hodgkin's lymphoma cell lines; type: cell-based; design: endogenous in cells; host or cells: HL cell lines KMH2, L428, L540, HDLM2 (A30: KMH2 treated with antitumor agents)
Experimental: The ATL cell lines (MT-1 and TL-Om1) and the control cell lines (K562 and Jurkat+TNF), 2×10^6 cells each, were treated with 10 μg/ml DHM2EQ for 12 hours, and nuclear extract was prepared from each cell line. Likewise, nuclear extract was prepared also from the cell lines not treated with DHM2EQ. MT-1 and TL-Om1 are the cell lines transformed with HTLV-1; NF-κB is activated in these cell lines. K562 (myelocytic leukemia cell line) is a cell line in which constitutive NF-κB is not confirmed (a negative control), and Jurkat+TNF is a […] consensus oligomers (Promega) were end-labeled with [γ-^32P]-ATP and polynucleotide kinase (PNK) to prepare ^32P-labeled NF-κB probes.
The equivalent of 2 μg of nuclear extract protein was mixed with NF-κB probes (the equivalent of 10,000 cpm) in a volume of 20 μl and reacted at room temperature for 30 min. The solution after the reaction was subjected to 7.5% polyacrylamide gel electrophoresis. The gel was then dried and exposed to an X-ray film.
The HL cell lines, KMH2, L428, L540, and HDLM2, and the control cell line K562 (2×10^6 cells each) were treated with 10 μg/ml DHMEQ for 12 hours, and nuclear extract was prepared from each cell line. The gel shift assay was performed in the same method as in Example 4 (1) and the inhibitory effect on NF-κB was examined. […] Cell line K562 (myelocytic leukemia cell line) is a cell line in which constitutive activation of NF-κB is not observed, and thus used as the negative control. On the other hand, the TNF-treated Jurkat (Jurkat+TNF) was used as the positive control.
Next, the HL cell lines KMH2 and L540 were treated with 10 μg/ml DHMEQ and nuclear extract was prepared from each cell line. The gel shift assay was performed in the same method as in Example 4 (1) and the time-course inhibitory effect on NF-κB was examined.
Thus, investigation was performed to determine whether these signals have NF-κB-specific subunits of DHMEQ resistance. Further, the HL cell lines, KMH2, L428L-540, and HDLM2 were treated with 5 μg/ml DHMEQ for 12 hours, and the remaining component of NF-κB was supershifted with antibodies against p50, p65, and c-Rel according to the same method as described in Example 1.
Target sequence in this assay (P19838 1-433 limits assumed): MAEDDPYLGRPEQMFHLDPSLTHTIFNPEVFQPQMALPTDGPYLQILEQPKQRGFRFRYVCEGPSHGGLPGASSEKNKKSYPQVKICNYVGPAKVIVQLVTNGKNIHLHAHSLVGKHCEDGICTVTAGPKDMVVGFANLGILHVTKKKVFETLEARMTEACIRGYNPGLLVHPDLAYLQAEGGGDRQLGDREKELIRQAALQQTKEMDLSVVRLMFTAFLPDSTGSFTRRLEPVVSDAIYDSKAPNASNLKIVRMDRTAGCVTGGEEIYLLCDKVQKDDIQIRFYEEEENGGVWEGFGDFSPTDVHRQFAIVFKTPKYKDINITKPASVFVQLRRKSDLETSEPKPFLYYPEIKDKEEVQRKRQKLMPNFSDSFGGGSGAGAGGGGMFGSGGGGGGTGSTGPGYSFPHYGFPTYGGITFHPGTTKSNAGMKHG
Target sequence in this assay (Q04206 whole entry): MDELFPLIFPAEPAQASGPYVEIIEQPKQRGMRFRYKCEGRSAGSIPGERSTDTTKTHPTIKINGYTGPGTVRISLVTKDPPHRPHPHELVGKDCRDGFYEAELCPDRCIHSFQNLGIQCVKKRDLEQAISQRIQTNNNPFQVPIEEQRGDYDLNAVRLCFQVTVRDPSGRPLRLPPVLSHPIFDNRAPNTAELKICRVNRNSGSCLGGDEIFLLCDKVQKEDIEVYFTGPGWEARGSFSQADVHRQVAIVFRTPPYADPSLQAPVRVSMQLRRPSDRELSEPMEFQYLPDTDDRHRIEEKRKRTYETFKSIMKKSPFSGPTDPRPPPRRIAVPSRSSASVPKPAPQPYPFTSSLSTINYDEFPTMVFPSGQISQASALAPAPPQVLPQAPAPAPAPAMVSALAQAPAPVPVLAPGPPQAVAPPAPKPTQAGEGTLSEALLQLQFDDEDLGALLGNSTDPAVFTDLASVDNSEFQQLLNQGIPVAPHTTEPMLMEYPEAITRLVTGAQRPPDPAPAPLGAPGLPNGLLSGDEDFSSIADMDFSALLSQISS

NF-κB [3] = molecular target: T2, NF-κB; assay: Reporter gene (luciferase) assay of NF-κB transcriptional activity in ATL cell lines; type: cell-based; design: endogenous in cells; details: MT-1 and TL-Om1; 5 μg/ml DHM2EQ; remaining activity vs untreated
Experimental: To examine the transcriptional activity of NF-κB, by using a luciferase construct (6 kB-Luc plasmid), containing six tandem copies of the NF-κB binding sequence, driven with an artificial promoter as a reporter, this plasmid DNA was transiently introduced into the ATL cell lines (MT-1 and TL-Om1) as well as into the control cell line (K562) (transfected on a scale of 2×10^5 cells/transfection using DMRIE-C (Invitrogen)). After 12 hours, treatment with 5 μg/ml DHM2EQ was started. Cells were recovered after 48 hours and the transcriptional activity of NF-κB was evaluated as the enzyme activity of the luciferase. The cell lines not treated with DHM2EQ were also evaluated in the same manner. All experiments were performed three times to obtain average values as well as standard deviations.
Target sequence in this assay (Q04206 whole entry): as above
Target sequence in this assay (P19838 1-433 limits assumed): as the sequence (P19838 1-433 limits assumed) above

[4] = Acute toxicity test in ICR mice; type: in vivo; details: mouse, in vivo, intraperitoneal; ICR mice, abdominal cavity, 24 hours; read-out: acute toxicity LD 50
Experimental: (§1) An acute toxicity test of DHMEQ was performed as follows: DHMEQ was dissolved in one drop of 10% DMSO saline+Tween, administered to the abdominal cavity of ICR mice, and the mortality/survival and status of the mice after 24 hours were investigated.

ICR mice = assay: Acute toxicity test in ICR mice; type: in vivo; details: ICR mice i.p.
Experimental: as §1

T1 sequence (Q04206 whole entry): as the sequence (Q04206 whole entry) above

For `O=C(NC1=CC(=O)C2OC2C1O)c1ccccc1O` (centres unmarked) [DHMEQ, 5,6-epoxy-4-hydroxy-3-salicyloylamino-2-cyclohexenone], the “nuclear translocation of p65” value (p65 subunit of NF-κB) was “inhibited”, the “cell proliferation, time course (MTT)” value ([1]; 10 μg/ml, 12, 24, 48, 72 hours, listed as DHM2EQ) was “hardly inhibited even after time had elapsed” and the “cell proliferation, concentration dependence (MTT)” value ([1]; 2, 5, 10 μg/ml, 72 hours) was “hardly inhibited”. The “signals by NF-κB (gel shift)” value (NF-κB [2]; KMH2, L428, L540, HDLM2, 10 μg/ml, 12 hours) was “almost lost”, the “persistence of inhibition of NF-κB activation” value (NF-κB [2]; KMH2 and L540, 10 μg/ml) was “sustained even after a lapse of 16 hours” and the “activation of NF-κB, time course (gel shift)” value (NF-κB [2]; KMH2 and L540, 10 μg/ml, 1 hour after treatment) was “almost inhibited”. The “remaining NF-κB signals after DHMEQ treatment” value (NF-κB [2]; L428 and KMH2) was “weak signals remain”, the “luciferase activity suppressed to (NF-κB transcriptional activity)” value (NF-κB [3]) was “about 50%” and the LD50 at 24 h [4] was 188 mg/kg. The “mortality/survival after 24 hours” value (ICR mice; 5 mg/mouse (about 250 mg/kg)) was “dead on the day of administration” and the “mortality/survival after 24 hours” value (ICR mice; 0.156, 0.313, 0.625, 1.25, or 2.5 mg/mouse) was “survived”.
